Results taken from US9963514B2, “BAG3 receptor binding molecules for use as a medicament” (BIOUNIVERSA S.R.L., priority 2013, dated 2018).

How the values were obtained:
[1] = system: J774 murine monocyte cell line; assay: Macrophage activation: nitrite production with Griess reagent (Example 8); type: cell-based; conditions: 24 h
Experimental: J774 cells were plated at a 60% confluence and incubated for 24 h with the BAG3 recombinant protein at concentrations of 10, 30, or 100 ng/ml. The nitrites production was verified in the culture medium using Griess reagent (1% sulphanilamide, 0.1% naphthyl ethylenediamine, 5% phosphoric acid) and measured using a Beckman DU-62 spectrophotometer at […].
The BAG3 recombinant protein was then used in macrophage activation assays in order to determine a possible role of the protein released in the serum in relation to the blood cells. To this end, the J774 murine monocyte cell line was treated with the BAG3 recombinant protein at different concentrations, using a pro-inflammatory agent, such as lipopolysaccharide (LPS), as a positive control. The activation of monocytes was measured by assay of nitrites. (FIG. 7).

[2] = system: inducible nitric oxide synthase (iNOS); assay: Effect of rBAG3 on iNOS expression in J774 cells (Western blot); type: cell-based, murine; conditions: 20 hours
Experimental: (§1) In order to explore the functional consequences of the binding of BAG3 to macrophages, we tested the effect of rBAG3 expression on inducible nitric oxide synthase (iNOS) and cyclo-oxygenase-2 (COX-2) in the cells. J774 cells at 80% confluence were incubated with a control medium, BSA, LPS or rBAG3 for 20 hours. Polymyxin was added to verify the presence of non-specific effects of endotoxins still present after the purification of the BAG3 recombinant protein. COX-2 and iNOS were analyzed in cell lysates by Western blotting.

[3] = system: cyclo-oxygenase-2 (COX-2); assay: Effect of rBAG3 on COX-2 expression in J774 cells (Western blot); type: cell-based, murine; conditions: 20 hours
Experimental: as §1

J774 A1 macrophages [4] = assay: Nitrite release by J774 A1 macrophages incubated with rBAG3 (Example 12); type: cell-based, murine; conditions: J774 A1 cells, 24 hours
Experimental: J774 A1 cells at 80% confluence were incubated with a control medium, BSA, LPS, or rBAG3 for 24 hours. […] supernatant from each sample was incubated with […] Griess reagent; the optical density at 550 nm (OD550) was measured with a Beckman DU62 spectrophotometer. The nitrite concentration was assessed by comparing the sample's OD at 550 nm with that of a standard sodium nitrite curve (FIG. 12).

J774 A1 macrophages [5] = assay: IL-6 release by J774 A1 macrophages incubated with rBAG3 (ELISA, Example 13); type: cell-based, murine; conditions: J774A.1 cells, 5 hours
Experimental: J774A.1 cells at 80% confluence were incubated with a control medium, BSA, LPS, or BAG3 for 5 hours. IL-6 was measured in the cell culture medium using an ELISA test. IL-6 concentration was assessed by comparing the sample's ODs with that of a standard IL-6 recombinant curve (FIG. 13).

J774 A1 cells [6] = assay: Binding of FITC-BAG3 to J774 macrophages by flow cytometry, with competition by BAG3-specific peptides or anti-BAG3 F(ab')2; parameters: species or system murine
Experimental: J774 A1 cells (1×10^6 cells/ml) were incubated with different concentrations of BAG3 FITC protein ([…]). FITC-BSA (70 nM) was used as a negative control (grey). Fluorescence was analyzed by flow cytometry. (FIG. 10).
In particular, J774 cells were incubated with 14 nM FITC-BAG3 protein and with 625 nM BAG3-specific peptides (peptide 1, peptide 2, peptide 3, peptide 4, or a scrambled peptide) or with 420 nM of anti-BAG3 F(ab′) antibodies (mouse monoclonal antibodies AC1, AC2 and the polyclonal antibody produced in rabbit TOS2). Fragments F(ab′) 2 of rabbit or mouse IgG were used as a negative control.

J774 A1 cells [7] = assay: Confocal fluorescence microscopy of rBAG3-FITC binding to J774 cells; parameters: species or system murine; conditions: 1 h
Experimental: The binding of the BAG3 protein to the cell surface of the J774 cells was then confirmed through conjugation of the recombinant protein with a fluorophore (FIG. 8). The BAG3 recombinant protein was then conjugated to FITC using the FluoroTag Conjugation FITC kit (SIGMA). Equal amounts of BSA-FITC (negative control) and rBAG3-FITC were added to the culture medium for 1 h. The cells were then fixed with a 3.7% formaldehyde solution and analyzed with a Zeiss LSM confocal microscope.
(§2) Confocal fluorescence microscopy analysis was performed to measure the binding of rBAG3-FITC to HCM, J774 A1, and PANC-1 cells. The BAG3 recombinant protein and the BSA (bovine serum albumin) (SIGMA) were conjugated to FITC using the FluoroTag Conjugation FITC kit (SIGMA) following the manufacturer's instructions. Equal amounts of rBAG3-FITC and BSA-FITC were added to the three cell lines in the presence of 0.1% NaN3 for 1 h. β-integrin protein was used as a positive control. Fluorescence was analyzed using a Zeiss LSM confocal microscope.

heart muscle cells (HCM) = assay: Confocal fluorescence microscopy of rBAG3-FITC binding to HCM cells; conditions: 0.1% NaN3, 1 h
Experimental: as §2, with “(FIG. 9). Confocal” for “Confocal”

[8] = system: pancreatic adenocarcinoma cells (PANC-1); assay: Confocal fluorescence microscopy of rBAG3-FITC binding to PANC-1 cells; conditions: 0.1% NaN3, 1 h
Experimental: as §2, with “(FIG. 9). Confocal” for “Confocal”

## rBAG3: BAG3 recombinant protein with a His tag
[1]; J774 cells, 100 ng/ml, p<0.001
  increase of nitrite production compared to the control: 200%
[1]; J774 cells, 10, 30 or 100 ng/ml
  nitrite production, dependence on dose: dose-dependent
[2]
  iNOS enzyme levels: increased
[3]
  COX-2 enzyme levels: increased
J774 A1 macrophages [4]
  release of nitrite: induces the release of nitrite
J774 A1 macrophages [5]
  release of interleukin-6 (IL-6): induces the release of interleukin-6 (IL-6)

## FITC-BSA: bovine serum albumin conjugated to FITC, negative control [reference compound]
J774 A1 cells [6]; J774 cells, FITC-BSA negative control, flow cytometry
  FITC-BSA positive cell % (±D.S.): 4.04 (±0.06) %

## FITC-rBAG3: BAG3 recombinant protein conjugated to FITC using the FluoroTag Conjugation FITC kit
J774 A1 cells [6]; J774 cells, FITC-rBAG3 alone, flow cytometry
  FITC-rBAG3 positive cell % (±D.S.): 15.7 (±0.45) %
J774 A1 cells [6]; J774 cells, FITC-rBAG3 minus FITC-BSA
  (FITC-rBAG3)-(FITC-BSA) positive cell % (±D.S.): 11.06 (±0.45) %
J774 A1 cells [6]; flow cytometry, 7, 14 and 70 nm FITC-BAG3
  binding of FITC-BAG3 to macrophages of the J774 cell line: binds the macrophages of the J774 cell line
J774 A1 cells [7]; listed as BAG3 recombinant protein bound to fluorescein isothiocyanate (FITC)
  binding to the cell surface of J774 macrophages: binds the surface of macrophages
J774 A1 cells [7]; listed as rBAG3-FITC
  binding to the cell surface of J774 macrophages: confirmed
Heart muscle cells (HCM)
  binding to heart muscle cells (HCM): not
[8]
  binding to pancreatic adenocarcinoma cells (PANC-1): not
